Reference: patent US11331369B2, “Endoparasitic depsipeptides” (Zoetis Services LLC, priority 2017, dated 2022)

What was measured:
Format in all cases: cell-based
[1] = system: third stage larvae of Haemonchus contortus; test: Haemonchus contortus L3 (HcL3) Assay; conditions: 96 h, read-out: HcL3 Minimum Effective Dose (MED)
[2] = system: 4th stage larvae (L4) of Dirofilaria immitis; test: Dirofilaria immitis, L4 Stage (DiL4) In Vitro Assay; conditions: Dirofilaria immitis, 72 h, read-out: DiL4 Minimum Effective Dose (MED), approximately 72 hours incubation; L4 larvae assessed for survival or paralysis
[3] = system: microfilariae of Dirofilaria immitis; test: Dirofilaria immitis, Microfilaria (DiMF) In vitro Assay; conditions: 72 h, read-out: DiMF Minimum Effective Dose (MED), approximately 72 hours incubation, microfilariae assessed for survival or paralysis

CC(C)C[C@H]1C(=O)O[C@H](Cc2ccc(Cn3ccc(OC(C)C)n3)cc2)C(=O)N(C)[C@@H](CC(C)C)C(=O)O[C@H](C)C(=O)N(C)[C@@H](CC(C)C)C(=O)O[C@H](Cc2ccc(Cn3ccc(OC(C)C)n3)cc2)C(=O)N(C)[C@@H](CC(C)C)C(=O)O[C@H](C)C(=O)N1C [Example 1b-151, (3S,6R,9S,12R,15S,18R,21S,24R)-3,9,15,21-tetraisobutyl-6,18-bis(4-((3-isopropoxy-1H-pyrazol-1-yl)methyl)benzyl)-4,10,12,16,22,24-hexamethyl-1,7,13,19-tetraoxa-4,10,16,22-tetraazacyclotetracosan-2,5,8,11,14,17,20,23-octaone] showed a minimal effective concentration [1] of at most 1 µM, a minimal effective concentration [2] of 0.0001 to 0.001 µM and a minimal effective concentration [3] of 0.001 to 0.01 µM.

CC(C)C[C@H]1C(=O)O[C@H](Cc2ccc(Cn3nccc3CC3CC3)cc2)C(=O)N(C)[C@@H](CC(C)C)C(=O)O[C@H](C)C(=O)N(C)[C@@H](CC(C)C)C(=O)O[C@H](Cc2ccc(Cn3nccc3CC3CC3)cc2)C(=O)N(C)[C@@H](CC(C)C)C(=O)O[C@H](C)C(=O)N1C [Example 1b-206, (3S,6R,9S,12R,15S,18R,21S,24R)-6,18-bis(4-((5-(cyclopropylmethyl)-1H-pyrazol-1-yl)methyl)benzyl)-3,9,15,21-tetraisobutyl-4,10,12,16,22,24-hexamethyl-1,7,13,19-tetraoxa-4,10,16,22-tetraazacyclotetracosan-2,5,8,11,14,17,20,23-octaone] was tested, and the minimal effective concentration [1] was at most 1 µM, the minimal effective concentration [2] was 0.0001 to 0.001 µM and the minimal effective concentration [3] was 0.01 to 0.1 µM.

With CC(C)C[C@H]1C(=O)O[C@H](Cc2ccc(Cn3nccc3C3CC3(F)F)cc2)C(=O)N(C)[C@@H](CC(C)C)C(=O)O[C@H](C)C(=O)N(C)[C@@H](CC(C)C)C(=O)O[C@H](Cc2ccc(Cn3nccc3C3CC3(F)F)cc2)C(=O)N(C)[C@@H](CC(C)C)C(=O)O[C@H](C)C(=O)N1C (stereo partly drawn) [Example 1b-216, (3S,6R,9S,12R,15S,18R,21S,24R)-6,18-bis(4-((5-(2,2-difluorocyclopropyl)-1H-pyrazol-1-yl)methyl)benzyl)-3,9,15,21-tetraisobutyl-4,10,12,16,22,24-hexamethyl-1,7,13,19-tetraoxa-4,10,16,22-tetraazacyclotetracosan-2,5,8,11,14,17,20,23-octaone] the minimal effective concentration [1] was at most 1 µM, the minimal effective concentration [2] was at most 0.0001 µM and the minimal effective concentration [3] was 0.001 to 0.01 µM.

CC(C)C[C@H]1C(=O)O[C@H](Cc2ccc(Cn3cnc(Br)c3)cc2)C(=O)N(C)[C@@H](CC(C)C)C(=O)O[C@H](C)C(=O)N(C)[C@@H](CC(C)C)C(=O)O[C@H](Cc2ccc(Cn3cnc(Br)c3)cc2)C(=O)N(C)[C@@H](CC(C)C)C(=O)O[C@H](C)C(=O)N1C [Example 6-12, (3S,6R,9S,12R,15S,18R,21S,24R)-6,18-bis(4-((4-bromo-1H-imidazol-1-yl)methyl)benzyl)-3,9,15,21-tetraisobutyl-4,10,12,16,22,24-hexamethyl-1,7,13,19-tetraoxa-4,10,16,22-tetraazacyclotetracosan-2,5,8,11,14,17,20,23-octaone] gave a minimal effective concentration [1] of 1 to 10 µM, a minimal effective concentration [2] of at most 0.0001 µM and a minimal effective concentration [3] of 0.001 to 0.01 µM.

CC(C)C[C@H]1C(=O)O[C@H](Cc2ccc(Cn3ncnc3C(C)(C)C)cc2)C(=O)N(C)[C@@H](CC(C)C)C(=O)O[C@H](C)C(=O)N(C)[C@@H](CC(C)C)C(=O)O[C@H](Cc2ccc(Cn3ncnc3C(C)(C)C)cc2)C(=O)N(C)[C@@H](CC(C)C)C(=O)O[C@H](C)C(=O)N1C [Example 9-51, (3S,6R,9S,12R,15S,18R,21S,24R)-6,18-bis(4-((5-(tert-butyl)-1H-1,2,4-triazol-1-yl)methyl)benzyl)-3,9,15,21-tetraisobutyl-4,10,12,16,22,24-hexamethyl-1,7,13,19-tetraoxa-4,10,16,22-tetraazacyclotetracosan-2,5,8,11,14,17,20,23-octaone] showed a minimal effective concentration [1] of 1 to 10 µM, a minimal effective concentration [2] of 0.001 to 0.01 µM and a minimal effective concentration [3] of 0.001 to 0.01 µM.
